Test results: patent US7429482B2, “Screening tools for discovery of novel anabolic agents” (United States of America as represented by the Department …, priority 2005, dated 2008)

What was measured:
[1] = test system: ARE reporter gene (MMTV hormone response element); assay: ARE (MMTV hormone response element) luciferase reporter in C2C12 and C2C12.AR cells; assay type: cell-based
Excerpt: The reporter genes pMAF3.1, pMAF2.4, pMAF948, pMAF400, and pMAF400-241 express firefly luciferase under the control of promoter regions of the human MAFbx gene and are described in Example 1. The rARC562G vector, encoding rat AR with a C562->G mutation in the first zinc binding module that disrupts binding of AR to DNA was described by Palvimo et al. (Mol Endocrinol 7: 1399-1407, 1993) pAR.4RKM (expressing AR with 4 R/K->M mutations in the nuclear localization sequence that is unable to enter the nucleus) and pAR.ABC (lacking the ligand binding domain) were described by Zhou et al. (J Biol Chem 269: 13115-13123, 1994). The pBabe.puro retroviral backbone described by Morgenstern and Land (Nucleic Acids Res 18: 3587-3596, 1990) was modified by introduction of a Not1 site. […]
Cells were seeded into wells of 24-well plates (5×10^5 cells/well) then maintained overnight in DMEM with 10% CDS-FBS. […] Cells were maintained for an additional 24 hours, at which time both firefly and renilla luciferase activity were determined using the Dual Luciferase Assay (Promega, Madison, Wis.) and a Berthold 96-well plate luminometer. […]
To determine whether C2C12 cells expressed AR, total RNA from these cells was extracted and analyzed by real-time PCR and compared to levels of AR mRNA in gastrocnemius muscle from male mice. […]

MAFbx = assay: Chronic denervation: MAFbx mRNA in gastrocnemius (qPCR); assay type: in vivo, rat
Experimental: Male Wistar rats weighing 200-250 gm (Taconic Farms, Germantown, N.Y.) were provided food and water ad libitum and were housed in a temperature and humidity controlled environment providing a 12:12 hour day-night cycle. For surgical procedures, animals were anesthetized with ketamine/xylazine. The left sciatic nerve was exposed by blunt dissection, and a 1 to 2 mm piece of this nerve was excised just below the level of the femoral head. A sham surgery was performed on the right hind limb in which the sciatic nerve was exposed but was not transected. Twenty eight days later, animals were anesthetized, and Alzet pumps were implanted subcutaneously on the back. […] Testosterone levels after replacement were approximately 15 nM, a high-normal range for rats of this age. Animals were sacrificed 3, 7 or 28 days after implantation of the miniosmotic pumps by inhalation of carbon dioxide. Gastrocnemius muscles were excised and weighed, then flash frozen on dry ice and stored at −80° C.
Total RNA was extracted from skeletal muscle (20 mg) by homogenization in guanidine thiocyanate using a Polytron followed by extraction of total RNA with phenol-chloroform as described by (Chomczynski and Sacchi, Anal Biochem 162: 156-159, 1987). Total RNA was further enriched using RNAeasy minicolumns (Qiagen, Valencia, Calif.). This procedure included digestion of contaminating DNA on the column with RNAse-free DNAse (Qiagen). Total RNA was eluted and quantified by absorbance at 260 nm. One μg of total RNA was used to prepare a cDNA library by reverse transcription (High Capacity cDNA Archive Kit, Applied Biosystems). Libraries were diluted 25-fold with water. Real time PCR was performed Taqman 2×PCR buffer (Applied Biosystems) using an Applied Biosystems 7500 thermocycler. Levels of gene expression in the denervated muscle were expressed as fold induction relative to muscle from the sham-denervated leg of animals administered vehicle. […] Fold-induction was determined using the 2^−ΔΔCt method, using expression of 18S RNA as the normalization control. […]

C[C@]12CC[C@H]3[C@@H](CCC4=CC(=O)CC[C@@]43C)[C@@H]1CC[C@@H]2O [testosterone]
luciferase expression by ARE-Luc reporter ([1]; C2C12.AR cells (human AR)): marked increase | increase in luciferase expression over baseline ([1]; wild-type C2C12 cells, MMTV hormone response element reporter): about 2 fold

C[C@]12CC[C@H]3[C@@H](CCC4=CC(=O)CC[C@@H]43)[C@@H]1CC[C@@H]2O [nandrolone]
MAFbx expression (MAFbx; denervated muscle, 7-days infusion (35 days after denervation)): tended to be reduced | reduction of MAFbx expression (MAFbx; denervated muscle, 28 days administration): 35% | MAFbx expression (MAFbx; sham-denervated muscle): did not alter
